Starred links: 1 amine or outer side, 2 acyl side, 3 side chain; linkers in the order of their positions; H or OH if unused. Non-standard residues stand in square brackets, D forms with d. Residues, ends and D or L forms follow the SMILES beside them. *: point of attachment. dAla(benzothien-2-yl) = N[C@H](Cc1cc2ccccc2s1)C(=O)O; Shikimoyl = O=C(C1=C[C@@H](O)[C@@H](O)[C@H](O)C1)*; Tetrahydrofuroyl(2R) = O=C([C@H]1CCCO1)*; dPhe(4-Cl) = N[C@H](Cc1ccc(Cl)cc1)C(=O)O; d2Nal = N[C@H](Cc1ccc2ccccc2c1)C(=O)O; Acetyl(3-pyridyl) = O=C(Cc1cccnc1)*; Lys(iPr) = CC(C)NCCCC[C@H](N)C(=O)O; NMeY = CN[C@@H](Cc1ccc(O)cc1)C(=O)O; dCit = NC(=O)NCCC[C@@H](N)C(=O)O; d3Pal = N[C@H](Cc1cccnc1)C(=O)O; Isonicotinoyl = O=C(c1ccncc1)*; Suc = O=C(CCC(=O)[*:2])[*:1]; Nicotinoyl = O=C(c1cccnc1)*; 2Furoyl = O=C(c1ccco1)*; azaGly = NNC(=O)O; Sar = CNCC(=O)O

The target of this assay is T1, LHRH (Rattus norvegicus, UniProt P30969).
T1 construct: endogenous in cells; host or cells: rat pituitary cells (own knowledge of the cited Haviv 1989 method)
T1 sequence (P30969 1-327): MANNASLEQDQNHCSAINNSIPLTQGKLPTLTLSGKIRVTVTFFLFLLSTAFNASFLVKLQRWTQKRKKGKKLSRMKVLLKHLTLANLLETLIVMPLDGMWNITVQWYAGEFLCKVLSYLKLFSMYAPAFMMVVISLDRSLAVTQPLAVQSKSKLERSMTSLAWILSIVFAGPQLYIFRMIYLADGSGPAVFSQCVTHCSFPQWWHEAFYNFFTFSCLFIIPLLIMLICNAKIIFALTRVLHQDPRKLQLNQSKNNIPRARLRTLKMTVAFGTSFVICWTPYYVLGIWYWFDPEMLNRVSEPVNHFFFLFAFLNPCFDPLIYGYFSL
Description: in vitro test for LHRH antagonist potency (pA2). It counts as cell-based. The conditions noted are these: negative logarithm of the antagonist concentration required to shift the response curve produced by the agonist leuprolide to two-fold higher concentration. The essentials: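 Antagonism read against the agonist leuprolide on rat LHRH receptor; value is pA2, the −log of antagonist concentration that doubles the agonist concentration needed for the same response.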
In the case of `CC(C)C[C@H](NC(=O)[C@@H](CCCNC(N)=O)NC(=O)[C@H](Cc1ccc(O)cc1)N(C)C(=O)[C@H](CO)NC(=O)[C@@H](Cc1cccnc1)NC(=O)[C@@H](Cc1ccc(Cl)cc1)NC(=O)[C@@H](Cc1ccc2ccccc2c1)NC(=O)CNC(=O)CCC(=O)O)C(=O)N[C@@H](CCCNC(=N)N)C(=O)N1CCC[C@H]1C(=O)N[C@H](C)C(N)=O` [Example 13d, N-Succinyl-Gly-D2Nal-D4ClPhe-D3Pal-Ser-NMeTyr-DCit-Leu-Arg-Pro-DAlaNH2] (Suc-G[d2Nal][dPhe(4-Cl)][d3Pal]S[NMeY][dCit]LRP[dA]-NH2), the Kb is 0.0407 nM. With `CC(C)C[C@H](NC(=O)[C@@H](CCCCNC(=O)c1cccnc1)NC(=O)[C@H](Cc1ccc(O)cc1)N(C)C(=O)[C@H](CO)NC(=O)[C@@H](Cc1cccnc1)NC(=O)[C@@H](Cc1ccc(Cl)cc1)NC(=O)[C@@H](Cc1ccc2ccccc2c1)NC(=O)Cc1cccnc1)C(=O)N[C@@H](CCCCNC(C)C)C(=O)N1CCC[C@H]1C(=O)N[C@H](C)C(N)=O` [Example 72h, N-(3-Pyridylacetyl)-D2Nal-D4ClPhe-D3Pal-Ser-NMeTyr-DLys(Nic)-Leu-Lys(Isp)- Pro-DAlaNH2] ({Acetyl(3-pyridyl)}-[d2Nal][dPhe(4-Cl)][d3Pal]S[NMeY][dK](Nicotinoyl)L[Lys(iPr)]P[dA]-NH2), the Kb was 0.00631 nM. As for `CC(C)C[C@H](NC(=O)[C@@H](CCCCNC(=O)c1cccnc1)NC(=O)[C@H](Cc1ccc(O)cc1)N(C)C(=O)[C@H](CO)NC(=O)[C@@H](Cc1cccnc1)NC(=O)[C@@H](Cc1ccc(Cl)cc1)NC(=O)[C@@H](Cc1ccc2ccccc2c1)NC(=O)NNC(=O)c1ccncc1)C(=O)N[C@@H](CCCCNC(C)C)C(=O)N1CCC[C@H]1C(=O)N[C@H](C)C(N)=O` [Example 37d, N-Isonicotinyl-Azagly-D2Nal-D4ClPhe-D3Pal-Ser-NMeTyr-DLys(Nic)-Leu-Lys(Isp)-Pro-DAlaNH2] (Isonicotinoyl-[azaGly][d2Nal][dPhe(4-Cl)][d3Pal]S[NMeY][dK](Nicotinoyl)L[Lys(iPr)]P[dA]-NH2), the Kb was 0.126 nM. For `CC(C)C[C@H](NC(=O)[C@@H](CCCNC(N)=O)NC(=O)[C@H](Cc1ccc(O)cc1)N(C)C(=O)[C@H](CO)NC(=O)[C@@H](Cc1cccnc1)NC(=O)[C@@H](Cc1ccc(Cl)cc1)NC(=O)[C@@H](Cc1ccc2ccccc2c1)NC(=O)[C@@H](CO)NC(=O)C1=C[C@@H](O)[C@@H](O)[C@H](O)C1)C(=O)N[C@@H](CCCNC(=N)N)C(=O)N1CCC[C@H]1C(=O)N[C@H](C)C(N)=O` [Example 13f, N-Shikimyl-DSer-D2Nal-D4ClPhe-D3Pal-Ser-NMeTyr-DCit-Leu-Arg-Pro-DAlaNH2] (Shikimoyl-[dS][d2Nal][dPhe(4-Cl)][d3Pal]S[NMeY][dCit]LRP[dA]-NH2), the antagonist equilibrium constant (Kb) is 0.0178 nM. On to `CC(C)C[C@H](NC(=O)[C@@H](CCCCNC(=O)C1=C[C@@H](O)[C@@H](O)[C@H](O)C1)NC(=O)[C@H](Cc1ccc(O)cc1)N(C)C(=O)[C@H](CO)NC(=O)[C@@H](Cc1cccnc1)NC(=O)[C@@H](Cc1ccc(Cl)cc1)NC(=O)[C@@H](Cc1ccc2ccccc2c1)NC(=O)CN(C)C(=O)c1cccnc1)C(=O)N[C@@H](CCCNC(=N)N)C(=O)N1CCC[C@H]1C(=O)N[C@H](C)C(N)=O` [Example 14a, N-Nicotinyl-Sar-D2Nal-D4ClPhe-D3Pal-Ser-NMeTyr-DLys(Shik)-Leu-Arg-Pro-DAlaNH2] (Nicotinoyl-[Sar][d2Nal][dPhe(4-Cl)][d3Pal]S[NMeY][dK](Shikimoyl)LRP[dA]-NH2), for which the Kb was 0.0132 nM. As to `CC(=O)N[C@H](Cc1ccc(O)cc1)C(=O)N[C@H](Cc1ccc2ccccc2c1)C(=O)N[C@H](Cc1ccc(Cl)cc1)C(=O)N[C@H](Cc1cccnc1)C(=O)N[C@@H](CO)C(=O)N(C)[C@@H](Cc1ccc(O)cc1)C(=O)N[C@H](CCCCNC(=O)c1cccnc1)C(=O)N[C@@H](CC(C)C)C(=O)N[C@@H](CCCCNC(C)C)C(=O)N1CCC[C@H]1C(=O)N[C@H](C)C(N)=O` [Example 1, N-Ac-DTyr-D2Nal-D4ClPhe-D3Pal-Ser-NMeTyr-DLys(Nicotinyl)-Leu-Lys(N-epsilon- Isopropyl) -Pro-DAlaNH2] (Ac-[dY][d2Nal][dPhe(4-Cl)][d3Pal]S[NMeY][dK](Nicotinoyl)L[Lys(iPr)]P[dA]-NH2), the antagonist dissociation constant (Kb) was 0.0178 nM. Turning to `CC(C)C[C@H](NC(=O)[C@@H](CCCCNC(=O)c1cccnc1)NC(=O)[C@H](Cc1ccc(O)cc1)N(C)C(=O)[C@H](CO)NC(=O)[C@@H](Cc1cccnc1)NC(=O)[C@@H](Cc1ccc(Cl)cc1)NC(=O)[C@@H](Cc1ccc2ccccc2c1)NC(=O)c1ccco1)C(=O)N[C@@H](CCCCNC(C)C)C(=O)N1CCC[C@H]1C(=O)N[C@H](C)C(N)=O` [Example 72a, N-2-Furoyl-D2Nal-D4ClPhe-D3Pal-Ser-NMeTyr-DLys(Nic)-Leu-Lys(Isp)-Pro-DAlaNH2] (2Furoyl-[d2Nal][dPhe(4-Cl)][d3Pal]S[NMeY][dK](Nicotinoyl)L[Lys(iPr)]P[dA]-NH2), the Kb was 0.01 nM.

Take `CC(C)C[C@H](NC(=O)[C@@H](CCCCNC(=O)c1cccnc1)NC(=O)[C@H](Cc1ccc(O)cc1)N(C)C(=O)[C@H](CO)NC(=O)[C@@H](Cc1cccnc1)NC(=O)[C@@H](Cc1ccc(Cl)cc1)NC(=O)[C@@H](Cc1ccc2ccccc2c1)NC(=O)CNC(=O)c1cccnc1)C(=O)N[C@@H](CCCNC(=N)N)C(=O)N1CCC[C@H]1C(=O)N[C@H](C)C(N)=O` [Example 27a, N-Nicotinyl-Gly-D2Nal-D4ClPhe-D3Pal-Ser-NMeTyr-DLys(Nic)-Leu-Arg-Pro-DAlaNH2] (Nicotinoyl-G[d2Nal][dPhe(4-Cl)][d3Pal]S[NMeY][dK](Nicotinoyl)LRP[dA]-NH2): the antagonist equilibrium constant (Kb) is 0.00776 nM.

For the compound `CC(C)C[C@H](NC(=O)[C@@H](CCCCNC(=O)C1=C[C@@H](O)[C@@H](O)[C@H](O)C1)NC(=O)[C@H](Cc1ccc(O)cc1)N(C)C(=O)[C@H](CO)NC(=O)[C@@H](Cc1cccnc1)NC(=O)[C@@H](Cc1ccc(Cl)cc1)NC(=O)[C@@H](Cc1ccc2ccccc2c1)NC(=O)[C@@H](CCCCNC(=O)C1=C[C@@H](O)[C@@H](O)[C@H](O)C1)NC(=O)C1=C[C@@H](O)[C@@H](O)[C@H](O)C1)C(=O)N[C@@H](CCCNC(=N)N)C(=O)N1CCC[C@H]1C(=O)N[C@H](C)C(N)=O` [Example 14j, N-Shikimyl-DLys(Shik)-D2Nal-D4ClPhe-D3Pal-Ser-NMeTyr-DLys(Shik)-Leu-Arg-Pro-DAlaNH2] (Shikimoyl-[dK](Shikimoyl)[d2Nal][dPhe(4-Cl)][d3Pal]S[NMeY][dK](Shikimoyl)LRP[dA]-NH2), the antagonist equilibrium constant (Kb) is 0.759 nM.

For the compound `CC(C)C[C@H](NC(=O)[C@@H](CCCCNC(=O)c1cccnc1)NC(=O)[C@H](Cc1ccc(O)cc1)N(C)C(=O)[C@H](CO)NC(=O)[C@@H](Cc1cccnc1)NC(=O)[C@@H](Cc1ccc(Cl)cc1)NC(=O)[C@@H](Cc1ccc2ccccc2c1)NC(=O)[C@H]1CCCO1)C(=O)N[C@@H](CCCCNC(C)C)C(=O)N1CCC[C@H]1C(=O)N[C@H](C)C(N)=O` [Example 68, N-(R)-Tetrahydrofur-2-oyl-D2Nal-D4ClPhe-D3Pal-Ser-NMeTyr-DLys(Nic)-Leu-Lys(Isp)-Pro-DAlaNH2] ({Tetrahydrofuroyl(2R)}-[d2Nal][dPhe(4-Cl)][d3Pal]S[NMeY][dK](Nicotinoyl)L[Lys(iPr)]P[dA]-NH2), the Kb is 0.0141 nM.

Regarding `CC(C)C[C@H](NC(=O)[C@H](CCCCNC(=O)c1cccnc1)NC(=O)[C@H](Cc1ccc(O)cc1)N(C)C(=O)[C@H](CO)NC(=O)[C@@H](Cc1cccnc1)NC(=O)[C@@H](Cc1ccc(Cl)cc1)NC(=O)[C@@H](Cc1ccc2ccccc2c1)NC(=O)CNC(=O)[C@@H]1CCCO1)C(=O)N[C@@H](CCCCNC(C)C)C(=O)N1CCC[C@H]1C(=O)N[C@H](C)C(N)=O` [Example 85, N (S)-2-Tetrahydrofuroyl-Gly-D2Nal-D4ClPhe-D3Pal-Ser-NMeTyr-Lys(N-epsilon-Nicotinyl) -Leu-Lys(N-epsilon-Isopropyl)-Pro-DAlaNH2], the Kb is 0.0112 nM. With `CC(C)C[C@H](NC(=O)[C@@H](CCCCNC(=O)c1cccnc1)NC(=O)[C@H](Cc1ccc(O)cc1)N(C)C(=O)[C@H](CO)NC(=O)[C@@H](Cc1cccnc1)NC(=O)[C@@H](Cc1ccc(Cl)cc1)NC(=O)[C@@H](Cc1ccc2ccccc2c1)NC(=O)CNC(=O)[C@@H]1CCCO1)C(=O)N[C@@H](CCCCNC(C)C)C(=O)N1CCC[C@@H]1C(=O)N[C@H](C)C(N)=O` [Example 88, N (S)-2-Tetrahydrofuroyl-Gly-D2Nal-D4ClPhe-D3Pal-Ser-NMeTyr-DLys(N-epsilon-Nicotinyl) -Leu-Lys(N-epsilon-Isopropyl)-DPro-DAlaNH2], the antagonist equilibrium constant (Kb) is 0.158 nM. For the compound `CC(C)C[C@H](NC(=O)[C@@H](CCCCNC(=O)c1cccnc1)NC(=O)[C@H](Cc1ccc(O)cc1)N(C)C(=O)[C@H](CO)NC(=O)[C@@H](Cc1cc2ccccc2s1)NC(=O)[C@@H](Cc1ccc(Cl)cc1)NC(=O)NNC(=O)c1ccco1)C(=O)N[C@@H](CCCCNC(C)C)C(=O)N1CCC[C@H]1C(=O)N[C@H](C)C(N)=O` [Example 33a, N-(2-Furoyl)-Azagly-D4ClPhe-DBal-Ser-NMeTyr-DLys(Nic)-Leu-Lys(Isp)-Pro-DAlaNH2] (2Furoyl-[azaGly][dPhe(4-Cl)][dAla(benzothien-2-yl)]S[NMeY][dK](Nicotinoyl)L[Lys(iPr)]P[dA]-NH2), the Kb was 0.00631 nM.

Broadly, the Kb is the equilibrium dissociation constant of an antagonist, usually derived from a functional assay.

The record behind these values is US5502035A, “N-terminus modified analogs of LHRH” (Tap Holdings Inc., priority 1994, dated 1996).
